According to publication PMC5587309, “Involvement of arginine 878 together with Ca^2+ in mouse aminopeptidase A substrate specificity for N-terminal acidic amino-acid residues” (PLoS ONE, 2017):
Numbering of substitutions follows the chain as printed. Like-named read-outs stand apart in the source and are kept apart here.

How the values were obtained:
Format in all cases: biochemical
wild-type mAPA = molecular target: T1, wild-type mAPA (Mus musculus, UniProt P16406); test: Kinetic parameters of substrate hydrolysis by wild-type His-mAPA; details: for Km / kcat: wild type mAPA
T1 construct: made in house; host or cells: stably transfected CHO-K1 cells
T1 sequence (P16406 1-945): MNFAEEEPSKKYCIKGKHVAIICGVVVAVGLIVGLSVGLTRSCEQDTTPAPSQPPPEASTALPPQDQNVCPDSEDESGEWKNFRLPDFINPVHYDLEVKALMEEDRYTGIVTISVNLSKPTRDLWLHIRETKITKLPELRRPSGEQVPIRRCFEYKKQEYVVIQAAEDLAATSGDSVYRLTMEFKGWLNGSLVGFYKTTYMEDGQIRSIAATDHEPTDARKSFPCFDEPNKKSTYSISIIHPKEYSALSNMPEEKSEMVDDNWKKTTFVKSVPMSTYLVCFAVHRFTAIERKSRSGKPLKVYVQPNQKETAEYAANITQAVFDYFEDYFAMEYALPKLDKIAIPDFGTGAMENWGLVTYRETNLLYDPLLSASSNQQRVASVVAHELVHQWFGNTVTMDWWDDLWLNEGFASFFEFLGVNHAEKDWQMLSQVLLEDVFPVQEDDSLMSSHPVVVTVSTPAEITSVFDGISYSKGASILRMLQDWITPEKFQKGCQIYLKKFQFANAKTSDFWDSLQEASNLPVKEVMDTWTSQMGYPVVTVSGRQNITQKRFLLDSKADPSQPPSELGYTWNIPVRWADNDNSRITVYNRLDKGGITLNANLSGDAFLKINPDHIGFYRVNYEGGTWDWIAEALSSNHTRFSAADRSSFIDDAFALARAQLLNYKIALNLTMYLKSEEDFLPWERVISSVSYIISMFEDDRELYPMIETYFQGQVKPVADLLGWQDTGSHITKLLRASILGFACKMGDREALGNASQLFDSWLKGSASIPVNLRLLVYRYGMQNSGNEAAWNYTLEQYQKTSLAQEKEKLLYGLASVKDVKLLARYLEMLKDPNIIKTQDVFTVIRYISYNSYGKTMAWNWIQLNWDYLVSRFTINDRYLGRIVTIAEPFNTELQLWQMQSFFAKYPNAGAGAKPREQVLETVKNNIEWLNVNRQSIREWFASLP
Protocol: (§1) Enzyme assays were carried out for wild-type and mutated His-mAPAs in 50 mM Tris-HCl buffer, pH 7.4, with or without 4 mM CaCl2, by monitoring the rate of hydrolysis of GluNA, as previously described. The sensitivity to Ca^2+ of purified wild-type and mutated His-mAPA was determinated by incubating 0.5 mM GluNA with 0 to 4 mM CaCl2 in a final volume of 100 μl of 50 mM Tris-HCl buffer, pH 7.4. All the assays were performed in black 96-well plates (solid black 96-well flat-bottomed non-treated plates with no lid; Corning Costar). All of the enzymatic studies were performed such that substrate hydrolysis rates were maintained below 10% (initial rate conditions). The kinetic curves were monitored by following the increase in fluorescence at 460 nm (lex = 330 nm), induced by the release of the β-naphthylamide fluorogenic part of the substrate by APA. Fluorescence signals were monitored by counting photons with a spectrophotometer (Fusion universal microplate analyser; Packard) equipped with a temperature control device and a plate shaker. The kinetic parameters (Km and kcat) were determined from Michaelis-Menten plots, using GraphPad Prism 4 software (GraphPad) with a final concentration of substrate (GluNA) from 0.005 to 5 mM with or without 4 mM Ca^2+. For evaluation of the substrate specificity of APA with or without 4 mM Ca^2+, the rate of hydrolysis of […] additional substrates, α-L-aspartate-β-naphthylamide (AspNA), α-L-alanine-β-naphthylamide (AlaNA) and basic α-L-lysine-β-naphthylamide (LysNA), was determined under the same experimental conditions as described for GluNA. The sensitivity of wild-type and mutated His-mAPAs to inhibition by [(3S)-3-amino-4-sulfanyl-butane-1-sulfonic acid] (EC33), glutamate-thiol (GluSH), glutamate-phosphonic-acid (GluPO3H2), methionine-thiol (MetSH) and lysine-thiol (LysSH) was determined by establishing dose-dependent inhibition curves for a final GluNA concentration of 0.5 mM in the presence or absence of 4 mM CaCl2. These compounds being linear competitive inhibitors, their Ki were calculated from the formula Ki = IC50/ (1+ [GluNA]/Km).

R878A mutated mAPA [1] = molecular target: T2, R878A mutated mAPA (Mus musculus, UniProt P16406, R878A); test: Kinetic parameters of substrate hydrolysis by R878A His-mAPA
T2 construct: made in house; host or cells: stably transfected CHO-K1 cells
T2 sequence (P16406 1-945 R878A): T1 sequence (P16406 1-945) with R878A
Protocol: as §1

R878A mutated mAPA [2] = molecular target: T2, R878A mutated mAPA; test: Inhibition of GluNA hydrolysis by purified recombinant R878A His-mAPA; details: R878A mAPA; for Ki: 0.5 mM GluNA, read-out: Ki
Protocol: as §1

Km (wild-type mAPA; 4 mM Ca2+) [µM]	kcat (wild-type mAPA; 4 mM Ca2+) [s⁻¹]	Km (wild-type mAPA; no Ca2+) [µM]	kcat (wild-type mAPA; no Ca2+) [s⁻¹]	increase of cleavage efficiency (kcat/Km) by addition of Ca2+ (wild-type mAPA; wild-type APA, 4 mM Ca2+ vs no Ca2+) [fold]	Km (R878A mutated mAPA [1]; 4 mM Ca2+) [µM]	kcat (R878A mutated mAPA [1]; 4 mM Ca2+) [s⁻¹]	Km (R878A mutated mAPA [1]; no Ca2+) [µM]	kcat (R878A mutated mAPA [1]; no Ca2+) [s⁻¹]	decrease in hydrolysis velocity (kcat) compared to wild-type (factor) (R878A mutated mAPA [1]; presence of Ca2+)	decrease in the affinity of the enzyme for the substrate compared to wild-type (factor) (R878A mutated mAPA [1]; presence of Ca2+)	Ki (R878A mutated mAPA [2]; 4 mM Ca2+) [nM]	Ki (R878A mutated mAPA [2]; absence of calcium) [nM]	enhancement of inhibitory potency by 4 mM Ca2+ compared to Ki in the absence of Ca2+ (R878A mutated mAPA [2]) [fold]	Structure (SMILES)
											7510 ± 660	118 ± 13		NCCCC[C@H](N)CS [LysSH, (2S)-2,6-diaminohexane-1-thiol]
321 ± 41	17.4 ± 0.6	394 ± 20	21.6 ± 0.5		544 ± 74	41.5 ± 1.6	651 ± 43.8	12.6 ± 0.04						C[C@H](N)C(=O)Nc1ccc2ccccc2c1 [HAlaβNA, α-L-alanine-β-naphthylamide]
											983 ± 160	1720 ± 190	1.7	N[C@H](CS)CCC(=O)O [GluSH, (4S)-4-amino-5-sulfanylpentanoic acid]

The remaining lines, values behind:

Structure (SMILES)	Km (wild-type mAPA; 4 mM Ca2+) [µM]	kcat (wild-type mAPA; 4 mM Ca2+) [s⁻¹]	Km (wild-type mAPA; no Ca2+) [µM]	kcat (wild-type mAPA; no Ca2+) [s⁻¹]	increase of cleavage efficiency (kcat/Km) by addition of Ca2+ (wild-type mAPA; wild-type APA, 4 mM Ca2+ vs no Ca2+) [fold]	Km (R878A mutated mAPA [1]; 4 mM Ca2+) [µM]	kcat (R878A mutated mAPA [1]; 4 mM Ca2+) [s⁻¹]	Km (R878A mutated mAPA [1]; no Ca2+) [µM]	kcat (R878A mutated mAPA [1]; no Ca2+) [s⁻¹]	decrease in hydrolysis velocity (kcat) compared to wild-type (factor) (R878A mutated mAPA [1]; presence of Ca2+)	decrease in the affinity of the enzyme for the substrate compared to wild-type (factor) (R878A mutated mAPA [1]; presence of Ca2+)	Ki (R878A mutated mAPA [2]; 4 mM Ca2+) [nM]	Ki (R878A mutated mAPA [2]; absence of calcium) [nM]	enhancement of inhibitory potency by 4 mM Ca2+ compared to Ki in the absence of Ca2+ (R878A mutated mAPA [2]) [fold]
N[C@@H](CCC(=O)O)C(=O)Nc1ccc2ccccc2c1 [HGluβNA, α-L-glutamyl-β-naphthylamide]	39.1 ± 3.9	81.7 ± 4.0	165 ± 13.5	13.9 ± 0.1	25	221 ± 4	22.4 ± 0.1	1500 ± 79.6	4.95 ± 0.1	4	6			
NCCCC[C@H](N)C(=O)Nc1ccc2ccccc2c1 [HLysβNA, α-L-lysine-β-naphthylamide]	244 ± 29.5	25.8 ± 0.2	304 ± 49.7	16.4 ± 0.7		159 ± 7.8	11.6 ± 0.2	394 ± 57	13.8 ± 0.7					
N[C@@H](CC(=O)O)C(=O)Nc1ccc2ccccc2c1 [HAspβNA, α-L-aspartate-β-naphthylamide]	54 ± 1.4	68.1 ± 1.3	149 ± 15.6	10.4 ± 0.6		199 ± 10.1	17.9 ± 0.2	1220 ± 24.9	1.89 ± 0.2					
CSCC[C@H](N)CS [MetSH]												3220 ± 200	475 ± 140	
N[C@H](CS)CCS(=O)(=O)O [EC33, (3S)‐3‐amino‐4‐sulfanylbutane‐1‐sulfonic acid]												2000 ± 200		
